Experimental data published in patent US20250108036A1, “COMPOSITIONS FOR REMOVING SENESCENT CELLS AND USES THEREOF” (LIFECEUTIX CO., LTD., priority 2021, published 2025).
Like-named read-outs stand apart in the source and are kept apart here.

Columns and labels:
[1] = system: foreskin cells in which senescence was not induced; test: CellTiter-Glo growth of foreskin cells in which senescence was not induced (Tables 5, 12); conditions: 3 days
Experimental: (§2) After 3 days, cell viability was measured using CellTiter-Glo Luminescent Cell Viability Assay (Promega) or light microscopy.

[2] = system: AST, ALT; test: serum AST and ALT in doxorubicin-aged mice (Example 8-8); type: in vivo, C57BL6J mice; conditions: doxorubicin-aged mice, LX-112 70 mg/kg oral daily 21 days, DOX without LX = 100%
Experimental: (§1) After adapting 8-week-old male C57BL6J mice (purchased from KRIBB Laboratory Animal Resource Center) to the experimental environment for 1 week, doxorubicin, an anticancer drug, was administered intraperitoneally at a concentration of 10 mg/kg, and mice that were induced to age for more than 10 days were assigned to an experimental group and a control group. LX-112 was mixed with 0.5% CMC-Na solution (purchased from Sigma) and administered orally at a concentration of 70 mg/kg daily for 21 days. The control group was administered only the solution in the same volume. After drug administration was completed, the method described in each Example below was performed.
In the same manner as in Example 7-5, the amounts of AST (aspartate aminotransferase) and ALT (alanine transaminase) released into the blood during liver damage were measured by spectrophotometry in the serum collected from mice using a kit (purchased from Sigma) according to the method described in the manual. […] Table 50 calculates the amount of each factor after aging was induced by treatment with the anticancer drug as 100% and compared it with the amount of each factor after treatment with LX-112.

[3] = chlorhexidine gluconate-induced peritoneal fibrosis in mice (Example 6-2); type: in vivo, C57BL6J mice; conditions: 0.1% CHG 10 ml/kg i.p. every 2 days for 20 days; LX-112 70 mg/kg i.p. daily from day 9
Experimental: After 8-week-old male C57BL6J mice (purchased from KRIBB Laboratory Animal Resource Center) were adapted to the experimental environment for 1 week, the mice were randomized into an experimental group and a control group. To induce peritoneal fibrosis, 0.1% chlorhexidine gluconate (CHG, purchased from Sigma) was dissolved in 15% ethanol phosphate buffer solution and administered intraperitoneally at a concentration of 10 ml/kg every 2 days for 20 days. From day 9, LX-112 was mixed with 0.5% CMC-Na solution (purchased from Sigma) and administered intraperitoneally at a concentration of 70 mg/kg every day. The control group (−) was administered only the solution in the same volume. On the 20th day, paraffin sections of peritoneal tissue prepared by fixation in 4% paraformaldehyde solution were stained with H/E (Hematoxylin/Eosin) and trichrome, and the thickness of the peritoneal mesothelial cell layer was measured under a light microscope.

[4] = system: SAOS-2; test: CellTiter-Glo cell viability of senescent SAOS-2 cancer cells (Example 2-2); type: cell-based, human; conditions: DOX → LX (LX-112 5 μM)
Experimental: The standard for treating various cancers, including osteosarcoma, is repeated chemotherapy. Accordingly, aging was induced in SAOS-2 in the same manner as in Example 2-1, and then (i) treated again with doxorubicin (DOX→DOX) or (ii) treated with the LX-112 (5 μM) composition (DOX→LX-112).

[5] = system: foreskin cells in which senescence was induced by doxorubicin; test: CellTiter-Glo cell viability of doxorubicin-induced senescent foreskin cells (Examples 1-2, 10, 11, 13; Tables 4, 63, 65); type: cell-based, human; conditions: for viability at 1.1 µM / viability at 10 µM: Homo sapiens, 72 h, read-out: Survival (%); for viability at 10 µM: LX-112 10 μM
Experimental: as §2

[6] = system: HMGN1; test: HMGN1 ELISA in culture medium of foreskin cells (Examples 10, 11; Tables 62, 63, 64); type: cell-based, human; conditions: for HMGN1 (pg/ml): senescent foreskin cells
[7] = fatigue/weakness tests and body weight in doxorubicin-aged mice (Example 8-7); type: in vivo, C57BL6J mice
Experimental: as §1
In the same way as Example 7-7, in order to analyze fatigue and weakness that occur as a side effect due to treatment with anticancer drugs in mice, activity evaluation (open field test), endurance evaluation (wire hanging test), and muscle strength and grip strength test (grip strength test) were performed. […] In Table 47, the amount of each evaluation after aging was induced by treatment with the anticancer drug was calculated as 100% and compared it with the amount of each evaluation after treatment with LX-112.

[8] = Oil Red O staining of liver of obesity-aged mice (Example 9-5); type: in vivo, C57BL6J mice; conditions: stained area, LX-112 70 mg/kg oral daily 21 days, DIO without LX = 100%
Experimental: 15-week-old male C57BL6J mice (purchased from Jackson Laboratories), whose obesity was induced by a high-fat diet, were adapted to the experimental environment for one week, and then the mice were randomized into an experimental group and a control group. LX-112 was mixed with 0.5% CMC-Na solution (purchased from Sigma) and administered orally at a concentration of 70 mg/kg daily for 21 days. The control group was administered only the solution in the same volume. After drug administration was completed, the method described in each Example below was performed. Mice were sacrificed and the weight of adipose tissue in each area was measured.
Table 60 calculates the stained area of Oil Red O after aging induced by obesity as 100% and compares it with the stained area of Oil Red O after treatment with LX-112.

[9] = system: senescent foreskin cells; test: survival of senescent foreskin cells treated with medium supernatant (secreted fluid) of compound-killed cells (Example 13, Tables 68, 69); type: cell-based, human; conditions: for Survival (%): supernatant-treated cells: senescent cells, after 3 days
Experimental: as §2
During this additional culture, by checking with an optical microscope, etc., the medium supernatants containing secreted fluid from normally proliferating and senescent cells in which cell death was induced were obtained. The obtained medium supernatant was replaced with the medium of normally proliferating and senescent cells, respectively, and cell survival rate was measured after 3 days.

[10] = system: umbilical cord-derived mesenchymal stem cells; test: death of senescent stem cells by LX-112; type: cell-based, human; conditions: LX-112 10 μM
Experimental: In addition to somatic cells, the death of senescent cells by LX-112 was confirmed to be about 50% in stem cells (umbilical cord-derived mesenchymal stem cells, purchased from ATCC) at a concentration of 10 μM. From this, it was confirmed that LX-112 can effectively remove senescent cells by inducing their death.

Structure (SMILES): O=c1c2ccccc2[se]n1CCn1[se]c2ccccc2c1=O [LX-112, 1,2-[bis(1,2-benzisoselenazolone-3(2H)-ketone)]ethane]
- Growth (%) ([1]; Table 5, LX-112 1.1 μM, N0 (cell number before treatment) = 100%): 201 (±8) %
- Growth (%) ([1]; Table 5, LX-112 10 μM, N0 = 100%): 123 (±8) %
- Growth (%) ([1]; Table 12, LX-112 1.1 μM, N0 = 100%): 206 (±15) %
- Growth (%) ([1]; Table 12, LX-112 10 μM, N0 = 100%): 122.7 (±16) %
- ALT (%) [2]: 72.2 (±14.1) %
- AST (%) [2]: 78 (±17.3) %
- Submesothelial Thickness (μm) [3]: 43.1 (±10.4) μm
- Survival (%) ([4]; 3 d): 35 (±4) %
- Survival (%) ([4]; 7 d): 14 (±5) %
- viability at 1.1 µM ([5]; LX-112 1.1 μM, 3 days): 67.2%
- viability at 1.1 µM ([5]; LX-112 1.1 μM, senescent foreskin cells): 67.2%
- viability at 10 µM ([5]; 3 days): 1%
- viability at 10 µM ([5]; senescent foreskin cells): 1%
- HMGN1 (pg/ml) ([6]; 10 μM, culture medium after 6 hours): 262.45 (±23.4) pg/ml
- HMGN1 secreted in the culture medium from dying senescent cells ([6]; ABT-263 1 μM or LX-112 10 μM, 6 hours): greatly increased
- HMGN1 (pg/ml) ([6]; LX-112 1.1 μM): 129.7(±9.3) pg/ml
- HMGN1 (pg/ml) ([6]; LX-112 10 μM): 262.45 (±23.4) pg/ml
- Open Field Test Time in Center (%) ([7]; Table 47, doxorubicin-aged mice, LX-112 70 mg/kg oral daily 21 days, DOX without LX = 100): 129 (±15) %
- Mean Body Weight (g) ([7]; mice, doxorubicin 10 mg/kg i.p. without or with LX-112 70 mg/kg oral daily 21 days): 22.8 (±3.1) g
- Oil Red O (%) [8]: 74 (±7.3) %
- death of senescent cells by medium supernatant (secreted fluid) of cells killed by the compound ([9]; supernatant from normally proliferating or senescent cells, survival after 3 days): selectively induced the death of senescent cells
- death of senescent cells [10]: about 50%

Structure (SMILES): COC(=O)c1ccc([C@H]2c3[nH]c4ccccc4c3C[C@H](C(=O)OC)N2C(=O)CCl)cc1 [LX-405]
- cell death, normally proliferating cells ([1]; 30 μM): induced the death of most cells
- cell death, senescent cells ([5]; 30 μM, 3 days): induced the death of most cells
- viability at 1.1 µM ([5]; 1.1 μM test compound, doxorubicin-induced senescent foreskin cells, CellTiter-Glo, 0 μM = 100): 4.9%
- activity at 30 µM ([6]; Homo sapiens, 30 μM test compound, doxorubicin-treated foreskin cells, DMSO = 100, read-out: HMGN1): 285%
- Survival (%) ([9]; supernatant from compound-treated medium without cells (No Cells)): 102.8 (±4.6) %
- Survival (%) ([9]; supernatant from death-induced proliferating foreskin cells (compound 30 μM)): 41.3 (±3.6) %
- Survival (%) ([9]; supernatant from death-induced senescent foreskin cells (compound 30 μM)): 52.7 (±0.1) %
